The values that follow come from paper PMC7918798, “Coumarins from Seseli devenyense Simonk.: Isolation by Liquid–Liquid Chromatography and Potential Anxiolytic Activity Using an In Vivo Zebrafish Larvae Model” (International Journal of Molecular Sciences, 2021).

As a reminder, the IC50 is the concentration that inhibits the measured activity by half.

One data set deals with GABAA receptor. The conditions noted are these: cited from earlier work; for influence on GABAA receptor: compared with phellopterin.
For a further data set, the system named is GABA/BDZ receptor. Set-up: method as in PMID 8971802. The conditions noted are these: cited from earlier work.
The next data set deals with animal model. The following applies: cited from earlier work; for anxiolytic activity (percentage of time and number of arms entries in the open arm): elevated plus maze.
Data set [1] concerns 5-dpf zebrafish larvae. The experiment in a line: Zebrafish larvae light/dark transition challenge: locomotor activity and thigmotaxis (anxiolytic activity assay, Phase 2). The format is in vivo, Danio rerio. The following applies: for distance moved by the larvae in the central arena / time spent in the central area: dark phase vs light phase, concentration not stated; for anxiolytic activity (authors' overall statement): zebrafish larvae model. As for the experimental part: (§1) The research protocol was adopted after Schnorr et al. (2012). The anxiolytic activity was evaluated in 24-well plates. The inner and outer zones of the well were delineated according to Schnorr et al. (2012). […] It could be also described as decreasing thigmotaxis. 1% DMSO in E3 solution was used as the negative control, 10 μM diazepam was used as the positive control. 32 larvae were used for each concentration.
(§2) The experimental procedure was divided into three stages: • (a) Preincubation: larvae were pre-incubated in a 1500 μL solution of tested compounds in individual wells of a 24-well plate at 28.5 °C, in dark, for 30 min. • (b) Acclimatization (min 0–10): plates were placed in an automated video recording bench station (ViewPoint, Lyon, France). Larvae were allowed to acclimatize to the test apparatus for 10 min. During this period, lights were kept on. • (c) Visual motor challenge (min 11–95): this stage experiment was divided into two phases: Phase 1—continuous illumination: larvae were subjected to continuous light for 40 min, with the purpose to determine the spontaneous locomotor activity and thigmotaxis behavior (before applying the factor causing the anxiety). Phase 2—light/dark transition: larvae were subjected to three cycles, each involving the 10-min lighting phase (continuous light) and the 5-min dark phase (anxiogenic factor).

For data set [2], the system named is 5-dpf zebrafish larvae. The experiment in a line: Zebrafish larvae 40 min continuous illumination: spontaneous locomotor activity and thigmotaxis (Phase 1). In kind it is in vivo, Danio rerio. The following applies: for spontaneous locomotor activity (average distance moved): 40 min continuous illumination. As for the experimental part:
as §1, §2

A short description of data set [3]: Shake-flask partition coefficient in HEMWat biphasic solvent systems. The format is physicochemical. As to the method:
The screening for suitable biphasic solvent systems to isolate the target coumarins from Seseli devenyense methanolic fruit extract (SDMFE) was performed by shake-flask experiments. The partition coefficient (Pi), defined as the ratio of the concentration of a solute in the stationary phase to its concentration in the mobile phase, was used as the screening parameter. The experimental protocol was previously descried by Widelski et al. (2018). Briefly, 1 mg of crude extract was dissolved in 4 mL of biphasic solvent systems obtained by mixing various volumes of hexane, ethyl acetate, methanol and water (HEMWat). After vigorous shaking, the flasks were left until the complete separation of the layers. Then, equal volumes of the upper and lower phase (0.5 mL) were taken, evaporated to dryness, dissolved again in methanol (1.0 mL) and analyzed by HPLC-DAD analysis, as descried below.
The preliminary analysis of the SDMFE, determination of the partition coefficient values and purity of collected fractions were assessed by HPLC-DAD. The HPLC-DAD analyses were performed on a Shimadzu HPLC (Shimadzu, Tokyo, Japan) equipped with automatic degasser (DGU-20A3R), quaternary pump (LC-20AD), auto-sampler (SIL-20AHT) and diode array detector (SPD-M20A). The separations were carried out on an Agilent Zorbax Eclipse XDB-C18 (Agilent, Santa Clara, CA, USA) (250 mm × 4.6 mm, 5 μm) column with a mobile phase consisting of water (solvent A) and methanol (solvent B). The following gradient was applied: 0 min: 50% B; 5 min: 60% B; 25 min: 80% B; 30–35 min: 100% B. The flow-rate was 1 mL/min; the column temperature was set at 25 °C. The injection volume of sample was 10 μL and detection was carried out at 320 nm.

In a further data set the test system is mice. The conditions noted are these: 5 mg/kg; cited from earlier work.
On the set-up of data set [4]: method as in PMID 23803166. The following applies: cited from earlier work.
The next data set has as its system murine model. Further details: method as in PMID 33049351. The conditions noted are these: cited from earlier work.
The subject of the next data set is zebrafish. Set-up: method as in PMID 33049351. The conditions noted are these: zebrafish model; cited from earlier work.
The mark [5] stands for this setting: dark phase vs DMSO-treated group in dark phase, 12.5 μM.
[6] abbreviates: dark phase vs DMSO-treated group in dark phase, 25 μM.
The mark [7] stands for this setting: dark phase vs DMSO-treated group in dark phase, 50 μM.
The mark [8] stands for this setting: dark phase vs light phase within same group, 12.5 μM.
[9] abbreviates: dark phase vs light phase within same group, 25 μM.
Setting [10] is: light phase vs DMSO-treated group in light phase, 12.5 μM.
Where [11] appears, read: light phase vs DMSO-treated group in light phase, 50 μM.
Where [12] appears, read: 40 min continuous illumination vs DMSO-treated group, 12.5 µM.
Setting [13] is: dark phase vs DMSO-treated group in dark phase, 9 μM.
The mark [14] stands for this setting: dark phase vs light phase within same group, 9 μM.
Where [15] appears, read: dark phase vs light phase within same group, 15 μM.
Setting [16] is: dark phase vs light phase within same group, 30 μM.

Each structure is given as a SMILES string.

Turning to `COc1c2ccoc2cc2oc(=O)ccc12` [bergapten], the “influence on GABAA receptor” value in the data set with GABAA receptor was “weaker influence”.
Turning to `COc1c2ccoc2c(OC[C@H]2OC2(C)C)c2oc(=O)ccc12` [byakangelicol], the “mode of action at GABA/BDZ receptor” value with GABA/BDZ receptor is “partial agonists”.
Take `COc1cc2cc(Oc3ccc4ccc(=O)oc4c3)c(=O)oc2cc1O` [daphnoretin]: the anxiolytic activity entry with animal model (rodent model of anxiety, tested on EPM) is listed as “significant anxiolytic activity”.
`CC(C)=CCOc1c2occc2cc2ccc(=O)oc12` [imperatorin]: the “influence on GABAA receptor” value in the data set on GABAA receptor is given as “weaker influence”. For the same molecule, in the data set with animal model, the “anxiolytic activity (percentage of time and number of arms entries in the open arm)” value is on record as “significant anxiolytic activity”.
With `CC(C)=CCOc1c2ccoc2cc2oc(=O)ccc12` [isoimperatorin], the “anxiolytic activity (percentage of time and number of arms entries in the open arm)” value in the data set with animal model is reported as “significant anxiolytic activity”.
`C/C=C(/C)C(=O)O[C@H]1[C@@H](O)c2c(ccc3ccc(=O)oc23)OC1(C)C` [isolaserpitin]: the “locomotor activity (average distance moved per 1-min time bin)” value in the data set on 5-dpf zebrafish larvae [1] (setting [5]) is listed as “significant increases”; with 5-dpf zebrafish larvae [1] (setting [6]), “significant increases”; in the data set with 5-dpf zebrafish larvae [1] (setting [7]), “significant increases”; with 5-dpf zebrafish larvae [1] (setting [10]) it was “significant increase”; in the data set with 5-dpf zebrafish larvae [1] (light phase vs DMSO-treated group in light phase, 25 μM) it was “significant increase”; with 5-dpf zebrafish larvae [1] (setting [11]), “significant increase”. In addition, the “percentage of distance moved in central area” value in the data set on 5-dpf zebrafish larvae [1] (setting [5]) is recorded as “significant increases”; in the data set on 5-dpf zebrafish larvae [1] (setting [6]) it was “significant increases”; with 5-dpf zebrafish larvae [1] (setting [7]), “significant increases”; in the data set on 5-dpf zebrafish larvae [1] (setting [8]), “increase”; with 5-dpf zebrafish larvae [1] (setting [9]), “increase”; with 5-dpf zebrafish larvae [1] (dark phase vs light phase within same group, 50 μM) it was “increase”. Moreover, the “percentage of distance moved in central area” value with 5-dpf zebrafish larvae [1] (setting [10]) and with 5-dpf zebrafish larvae [1] (setting [11]) was “significant increase” each time. Further, the “percentage of time spent in central area” value was “significant increases” in the data set on 5-dpf zebrafish larvae [1] (setting [5]); “significant increases” in the data set with 5-dpf zebrafish larvae [1] (setting [6]); “significant increases” with 5-dpf zebrafish larvae [1] (setting [7]); “increase” in the data set on 5-dpf zebrafish larvae [1] (setting [8]); “increase” in the data set with 5-dpf zebrafish larvae [1] (setting [9]); “significant increase” in the data set on 5-dpf zebrafish larvae [1] (setting [10]). Also, the “percentage of time spent in central area” value with 5-dpf zebrafish larvae [1] (setting [11]) is “significant increase”. Besides, the “distance moved by the larvae in the central arena” value in the data set with 5-dpf zebrafish larvae [1] was “significantly increased”. The “time spent in the central area” value in the data set with 5-dpf zebrafish larvae [1] was “significantly increased”. In addition, the “anxiolytic activity (authors' overall statement)” value in the data set with 5-dpf zebrafish larvae [1] is recorded as “higher”. In addition, the “percentage of distance moved in the central arena” value in the data set with 5-dpf zebrafish larvae [2] (setting [12]) was “increased”; in the data set on 5-dpf zebrafish larvae [2] (40 min continuous illumination vs DMSO-treated group, 50 µM), “increased”. Also, the “percentage of time spent in the central arena” value with 5-dpf zebrafish larvae [2] (setting [12]) is given as “increase”. Also, the “spontaneous locomotor activity (average distance moved)” value in the data set with 5-dpf zebrafish larvae [2] (all concentrations (12.5, 25, 50 µM)) is listed as “has not influenced”. Further, in data set [3] (solvent system II, hexane/ethyl acetate/methanol/water 6/5/6/5 (v/v/v/v)), the “Partition Coefficients (Pi)” value was determined as 1.01.
Consider `CCCCCCCC(=O)O[C@H]1Cc2c(ccc3ccc(=O)oc23)OC1(C)C` [octanoyllomatin], for which the “percentage of distance moved in central area” value is listed as “significant increases” in the data set with 5-dpf zebrafish larvae [1] (setting [13]), “increase” in the data set on 5-dpf zebrafish larvae [1] (setting [14]), “increase” in the data set on 5-dpf zebrafish larvae [1] (setting [15]) and “increase” in the data set with 5-dpf zebrafish larvae [1] (setting [16]). Besides, the “percentage of time spent in central area” value is on record as “significant increases” in the data set on 5-dpf zebrafish larvae [1] (setting [13]); “significant increases” in the data set on 5-dpf zebrafish larvae [1] (dark phase vs DMSO-treated group in dark phase, 15 μM); “increase” in the data set with 5-dpf zebrafish larvae [1] (setting [14]); “increase” in the data set on 5-dpf zebrafish larvae [1] (setting [15]); “increase” with 5-dpf zebrafish larvae [1] (setting [16]); “decrease” with 5-dpf zebrafish larvae [1] (light phase vs DMSO-treated group in light phase, 30 μM). Besides, the “locomotor activity (average distance moved per 1-min time bin)” value in the data set on 5-dpf zebrafish larvae [1] (dark phase vs DMSO-treated group in dark phase, 30 μM) is on record as “significant decreases”; with 5-dpf zebrafish larvae [1] (setting [14]), “increase”; in the data set on 5-dpf zebrafish larvae [1] (setting [15]) it was “increase”. Besides, the “distance moved by the larvae in the central arena” value in the data set with 5-dpf zebrafish larvae [1] is on record as “significantly increased”. Also, the “time spent in the central area” value in the data set on 5-dpf zebrafish larvae [1] is reported as “significantly increased”. Also, the “anxiolytic activity (authors' overall statement)” value with 5-dpf zebrafish larvae [1] is “highest anxiolytic activity”. The “spontaneous locomotor activity (average distance moved)” value in the data set with 5-dpf zebrafish larvae [2] (all concentrations (9, 15, 30 µM)) is listed as “has not influenced”. Besides, in [3] (solvent system III, hexane/ethyl acetate/methanol/water 5/2/5/2 (v/v/v/v)), the “Partition Coefficients (Pi)” value is reported as 2.01.
Turning to `CC(C)=CCCC(C)=CCc1cc2ccc(=O)oc2cc1O` [ostruthin, 6-(3,7-dimethyl-2,6-octadienyl)-7-hydroxycoumarin], the anxiolytic effect entry with mice was “anxiolytic effect”.
Consider `COc1c2ccoc2c(OCC=C(C)C)c2oc(=O)ccc12` [phellopterin], for which the “mode of action at GABA/BDZ receptor” value in the data set with GABA/BDZ receptor is “partial agonists”. Besides, on GABAA receptor, the 50% inhibitory concentration (IC50) was 0.36 µM.
`O=c1ccc2cc3ccoc3cc2o1` [psolaren]: in the data set on GABA/BDZ receptor, the “mode of action at GABA/BDZ receptor” value was “partial agonists”.
Turning to `COc1cc2ccc(=O)oc2cc1O` [scopoletin, 7-hydroxy-6-methoxycoumarin], in data set [4], the anxiolytic effects entry is given as “significant sustained anxiolytic effects”.
Regarding `O=c1ccc2ccc(O)cc2o1` [umbelliferone, 7-hydroxycoumarin], the anxiolytic effects entry in data set [4] is reported as “significant sustained anxiolytic effects”.
Regarding `COc1c2occc2cc2ccc(=O)oc12` [xanthotoxin], the “effect on anxiety behaviors (thigmotaxis)” value in the data set on murine model and with zebrafish was “reversed U-shape effect” in each case.
